Source: patent publication US10681908B2, “Molecules having pesticidal utility, and intermediates, compositions, and processes, related thereto” (Dow AgroSciences LLC, priority 2016, dated 2020)

Assays:
[1] = tested on: Beet Armyworm (Spodoptera exigua, LAPHEG); experiment: Bioassay on Beet Armyworm (BAW), 128-well diet tray assay; format: in vivo; conditions: 168 h, 50 μg/cm^2 on artificial diet, second instar larvae, five to seven days, 25° C., read-out: BAW % Control (or Mortality) rating
Procedure: (§1) Example A: Bioassays on Beet Armyworm (Spodoptera Exigua, LAPHEG) (“BAW”), Corn Earworm (Helicoverpa zea, HELIZE) (“CEW”), and Cabbage Looper (Trichoplusia ni, TRIPNI) (“CL”)
(§2) Certain molecules disclosed in this document were tested against BAW, CEW, and CL using procedures described in the following examples. In the reporting of the results, the “BAW, CEW, & CL Rating Table” was used (See Table Section).
Bioassays on BAW were conducted using a 128-well diet tray assay. One to five second instar BAW larvae were placed in each well (3 mL) of the diet tray that had been previously filled with 1 mL of artificial diet to which 50 μg/cm^2 of the test molecule (dissolved in 50 μL of 90:10 acetone-water mixture) had been applied (to each of eight wells) and then allowed to dry. Trays were covered with a clear self-adhesive cover and held at 25° C., 14:10 light-dark for five to seven days. Percent mortality was recorded for the larvae in each well; activity in the eight wells was then averaged. The results are indicated in the table entitled “Table ABC: Biological Results” (See Table Section).
(§3) Bioassays on BAW and CL were conducted according to the procedures outlined in Example A: Bioassays on Beet Armyworm (“BAW”) and Cabbage Looper (“CL”) using the indicated concentrations.

[2] = tested on: Cabbage Looper (Trichoplusia ni, TRIPNI); experiment: Bioassay on Cabbage Looper (CL), 128-well diet tray assay; format: in vivo; conditions: 168 h, 50 μg/cm^2 on artificial diet, second instar larvae, five to seven days, 25° C., read-out: CL % Control (or Mortality) rating
Procedure: as §1, §2
Bioassays on CL were conducted using a 128-well diet tray assay. One to five second instar CL larvae were placed in each well (3 mL) of the diet tray that had been previously filled with 1 mL of artificial diet to which 50 μg/cm^2 of the test molecule (dissolved in 50 μL of 90:10 acetone-water mixture) had been applied (to each of eight wells) and then allowed to dry. Trays were covered with a clear self-adhesive cover and held at 25° C., 14:10 light-dark for five to seven days. Percent mortality was recorded for the larvae in each well; activity in the eight wells was then averaged. The results are indicated in the table entitled “Table ABC: Biological Results” (See Table Section).
as §3

Row | SMILES | mortality at 50 µg/cm2 [1] | mortality at 50 µg/cm2 [2]
1 | C[C@H](CS(=O)(=O)CC(F)(F)F)NC(=O)c1ccc(/C(F)=C/C(c2cc(Cl)cc(C(F)(F)F)c2)C(F)(F)F)cc1C(F)(F)F (stereo partly drawn) [F81, 4-((Z)-3-(3-Chloro-5-(trifluoromethyl)phenyl)-1,4,4,4-tetrafluorobut-1-en-1-yl)-N—((R)-1-((2,2,2-trifluoroethyl)sulfonyl)propan-2-yl)-2-(trifluoromethyl)benzamide] | 50 to 100% | 50 to 100%
2 | C[C@H](CSCC(F)F)NC(=O)c1ccc(/C(F)=C/C(c2cc(Cl)c(Cl)c(Cl)c2)C(F)(F)F)cc1C(F)(F)F (stereo partly drawn) [F82, N—((R)-1-((2,2-Difluoroethyl)thio)propan-2-yl)-4-((Z)-1,4,4,4-tetrafluoro-3-(3,4,5-trichlorophenyl)but-1-en-1-yl)-2-(trifluoromethyl)benzamide] | 50 to 100% | 50 to 100%
3 | C[C@H](CSCC#N)NC(=O)c1ccc(/C(F)=C/C(c2cc(Cl)c(Cl)c(Cl)c2)C(F)(F)F)cc1C(F)(F)F (stereo partly drawn) [F83, N—((R)-1-((Cyanomethyl)thio)propan-2-yl)-4-((Z)-1,4,4,4-tetrafluoro-3-(3,4,5-trichlorophenyl)but-1-en-1-yl)-2-(trifluoromethyl)benzamide] | 50 to 100% | 50 to 100%
4 | C[C@H](CSCCF)NC(=O)c1ccc(/C(F)=C/C(c2cc(Cl)c(Cl)c(Cl)c2)C(F)(F)F)cc1C(F)(F)F (stereo partly drawn) [F84, N—((R)-1-((2-Fluoroethyl)thio)propan-2-yl)-4-((Z)-1,4,4,4-tetrafluoro-3-(3,4,5-trichlorophenyl)but-1-en-1-yl)-2-(trifluoromethyl)benzamide] | 50 to 100% | 50 to 100%
5 | C[C@H](CS(=O)(=O)CCF)NC(=O)c1ccc(/C(F)=C/C(c2cc(Cl)c(Cl)c(Cl)c2)C(F)(F)F)cc1C(F)(F)F (stereo partly drawn) [F85, N—((R)-1-((2-Fluoroethyl)sulfonyl)propan-2-yl)-4-((Z)-1,4,4,4-tetrafluoro-3-(3,4,5-trichlorophenyl)but-1-en-1-yl)-2-(trifluoromethyl)benzamide] | 50 to 100% | 50 to 100%
6 | C[C@H](C[S+]([O-])CC(F)F)NC(=O)c1ccc(/C(F)=C/C(c2cc(Cl)c(Cl)c(Cl)c2)C(F)(F)F)cc1C(F)(F)F (stereo partly drawn) [F86, N-((2R)-1-((2,2-Difluoroethyl)sulfinyl)propan-2-yl)-4-((Z)-1,4,4,4-tetrafluoro-3-(3,4,5-trichlorophenyl)but-1-en-1-yl)-2-(trifluoromethyl)benzamide] | 50 to 100% | 50 to 100%
7 | C[C@H](CS(C)(=O)=O)NC(=O)c1ccc(/C(F)=C/C(c2cc(Cl)c(Cl)c(Cl)c2)C(F)(F)F)cc1C(F)(F)F (stereo partly drawn) [F87, N—((R)-1-(methylsulfonyl)propan-2-yl)-4-((Z)-1,4,4,4-tetrafluoro-3-(3,4,5-trichlorophenyl)but-1-en-1-yl)-2-(trifluoromethyl)benzamide] | 50 to 100% | 50 to 100%
8 | CSC(C)CNC(=O)c1ccc(/C(F)=C/C(c2cc(Cl)c(Cl)c(Cl)c2)C(F)(F)F)cc1C(F)(F)F (stereo not drawn) [F89, (Z)—N-(2-(Methylthio)propyl)-4-(1,4,4,4-tetrafluoro-3-(3,4,5-trichlorophenyl)but-1-en-1-yl)-2-(trifluoromethyl)benzamide] | 50 to 100% | 50 to 100%
9 | CC(CNC(=O)c1ccc(/C(F)=C/C(c2cc(Cl)c(Cl)c(Cl)c2)C(F)(F)F)cc1C(F)(F)F)[S+](C)[O-] (stereo not drawn) [F90, (Z)—N-(2-(Methylsulfinyl)propyl)-4-(1,4,4,4-tetrafluoro-3-(3,4,5-trichlorophenyl)but-1-en-1-yl)-2-(trifluoromethyl)benzamide] | 50 to 100% | 50 to 100%
10 | C[C@H](CS(=O)(=O)CC(F)(F)F)NC(=O)c1ccc(/C(F)=C/C(c2cc(F)c(F)c(Br)c2)C(F)(F)F)cc1C(F)(F)F (stereo partly drawn) [F94, 4-((Z)-3-(3-Bromo-4,5-difluorophenyl)-1,4,4,4-tetrafluorobut-1-en-1-yl)-N—((R)-1-((2,2,2-trifluoroethyl)sulfonyl)propan-2-yl)-2-(trifluoromethyl)benzamide] | 50 to 100% | 50 to 100%
11 | C[C@H](C[S+]([O-])CC(C)(F)F)NC(=O)c1ccc(/C(F)=C/C(c2cc(Cl)c(Cl)c(Cl)c2)C(F)(F)F)cc1C(F)(F)F (stereo partly drawn) [F96, N-((2R)-1-((2,2-Difluoropropyl)sulfinyl)propan-2-yl)-4-((Z)-1,4,4,4-tetrafluoro-3-(3,4,5-trichlorophenyl)but-1-en-1-yl)-2-(trifluoromethyl)benzamide] | 50 to 100% | 50 to 100%
12 | C[C@H](CS(=O)(=O)CC(C)(F)F)NC(=O)c1ccc(/C(F)=C/C(c2cc(Cl)c(Cl)c(Cl)c2)C(F)(F)F)cc1C(F)(F)F (stereo partly drawn) [F97, N—((R)-1-((2,2-difluoropropyl)sulfonyl)propan-2-yl)-4-((Z)-1,4,4,4-tetrafluoro-3-(3,4,5-trichlorophenyl)but-1-en-1-yl)-2-(trifluoromethyl)benzamide] | 50 to 100% | 50 to 100%
13 | CC(C)(CS(C)(=O)=O)NC(=O)c1ccc(/C(F)=C/C(c2cc(Cl)c(Cl)c(Cl)c2)C(F)(F)F)cc1C(F)(F)F (stereo not drawn) [F100, (Z)—N-(2-Methyl-1-(methylsulfonyl)propan-2-yl)-4-(1,4,4,4-tetrafluoro-3-(3,4,5-trichlorophenyl)but-1-en-1-yl)-2-(trifluoromethyl)benzamide] | 50 to 100% | 50 to 100%
14 | CSC(C)C(C)NC(=O)c1ccc(/C(F)=C/C(c2cc(Cl)c(Cl)c(Cl)c2)C(F)(F)F)cc1C(F)(F)F (stereo not drawn) [F101, (Z)—N-(3-(methylthio)butan-2-yl)-4-(1,4,4,4-tetrafluoro-3-(3,4,5-trichlorophenyl)but-1-en-1-yl)-2-(trifluoromethyl)benzamide] | 50 to 100% | 50 to 100%
15 | C[C@H](CS(=O)(=O)CC(F)(F)F)NC(=O)c1ccc(/C(F)=C/C(c2ccc(OC(F)(F)F)c(Cl)c2)C(F)(F)F)cc1C(F)(F)F (stereo partly drawn) [F109, 4-((Z)-3-(3-Chloro-4-(trifluoromethoxy)phenyl)-1,4,4,4-tetrafluorobut-1-en-1-yl)-N—((R)-1-((2,2,2-trifluoroethyl)sulfonyl)propan-2-yl)-2-(trifluoromethyl)benzamide] | 50 to 100% | 50 to 100%
16 | C[C@H](CS(=O)(=O)CC(F)(F)F)NC(=O)c1ccc(/C(F)=C/C(c2cc(Cl)cc(OC(F)(F)F)c2)C(F)(F)F)cc1C(F)(F)F (stereo partly drawn) [F110, 4-((Z)-3-(3-Chloro-5-(trifluoromethoxy)phenyl)-1,4,4,4-tetrafluorobut-1-en-1-yl)-N—((R)-1-((2,2,2-trifluoroethyl)sulfonyl)propan-2-yl)-2-(trifluoromethyl)benzamide] | 50 to 100% | 50 to 100%
17 | C=Cc1cc(Cl)cc(C(/C=C(\F)c2ccc(C(=O)N[C@H](C)CS(=O)(=O)CC(F)(F)F)c(C(F)(F)F)c2)C(F)(F)F)c1 (stereo partly drawn) [F112, 4-((Z)-3-(3-Chloro-5-vinylphenyl)-1,4,4,4-tetrafluorobut-1-en-1-yl)-N—((R)-1-((2,2,2-trifluoroethyl)sulfonyl)propan-2-yl)-2-(trifluoromethyl)benzamide] | 50 to 100% | 50 to 100%
18 | C[C@H](CSCC(C)(F)F)NC(=O)c1ccc(/C(F)=C/C(c2cc(Cl)c(Cl)c(Cl)c2)C(F)(F)F)cc1C(F)(F)F (stereo partly drawn) [F113, N—((R)-1-((2,2-Difluoropropyl)thio)propan-2-yl)-4-((Z)-1,4,4,4-tetrafluoro-3-(3,4,5-trichlorophenyl)but-1-en-1-yl)-2-(trifluoromethyl)benzamide] | 50 to 100% | 50 to 100%
19 | C=C(C)c1cc(C(/C=C(\F)c2ccc(C(=O)N[C@H](C)CS(=O)(=O)CC(F)(F)F)c(C(F)(F)F)c2)C(F)(F)F)cc(Cl)c1Cl (stereo partly drawn) [F114, 4-((Z)-3-(3,4-Dichloro-5-(prop-1-en-2-yl)phenyl)-1,4,4,4-tetrafluorobut-1-en-1-yl)-N—((R)-1-((2,2,2-trifluoroethyl)sulfonyl)propan-2-yl)-2-(trifluoromethyl)benzamide] | 50 to 100% | 50 to 100%
20 | C=Cc1cc(/C(F)=C/C(c2cc(Cl)c(Cl)c(Cl)c2)C(F)(F)F)ccc1C(=O)N[C@H](C)CS(=O)(=O)CC(F)(F)F (stereo partly drawn) [F116] | 50 to 100% | 50 to 100%
21 | C[C@H](CSCC(F)(F)F)NC(=O)c1ccc(/C(F)=C/C(c2cc(F)c(Cl)c(C(F)(F)F)c2)C(F)(F)F)cc1C(F)(F)F (stereo partly drawn) [F117, 4-((Z)-3-(4-Chloro-3-fluoro-5-(trifluoromethyl)phenyl)-1,4,4,4-tetrafluorobut-1-en-1-yl)-N—((R)-1-((2,2,2-trifluoroethyl)thio)propan-2-yl)-2-(trifluoromethyl)benzamide] | 50 to 100% | 50 to 100%
